Assay results from article PMC11497069, “Novel Arf1 Inhibitors Drive Cancer Stem Cell Aging and Potentiate Anti‐Tumor Immunity” (Advanced Science, 2024).

Molecular target: T1, Arf1 (Homo sapiens, UniProt P84077)
T1 construct: endogenous Arf1 in Huh7 cells, active form pulled down with GGA3 and detected with anti-Arf1 antibody
Test: GGA3 pull-down of active Arf1, western blot
Assay type: cell-based
Details: Huh7 cells; GBF1-dependent Arf1 activation

T1 sequence (P84077 2-181): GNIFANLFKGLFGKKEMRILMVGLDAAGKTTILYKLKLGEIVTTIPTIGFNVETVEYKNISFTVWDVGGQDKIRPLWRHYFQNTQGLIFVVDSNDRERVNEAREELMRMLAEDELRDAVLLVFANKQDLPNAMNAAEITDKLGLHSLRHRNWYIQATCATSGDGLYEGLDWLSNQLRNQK

Compound: C(=N\Nc1ncnc2sc3c(c12)CCCC3)/c1ccc2[nH]ccc2c1 [DU101]
- GGA3 pull-down of active Arf1, western blot: DU101 or DU102 treatment significantly inhibited Arf1 activity

Compound: C(=N\Nc1ncnc2sc3c(c12)CCCCCC3)/c1ccc2[nH]ccc2c1 [DU102]
- GGA3 pull-down of active Arf1, western blot: DU101 or DU102 treatment significantly inhibited Arf1 activity
